From patent US10934310B2, “Inhibitors of Bruton's tyrosine kinase and method of their use” (JANSSEN PHARMACEUTICA NV, priority 2015, dated 2021)

biological target: unphosphorylated-BTK kinase domain (UP-BTK), GST-tagged human BTK (389-659aa) (Homo sapiens (Human), UniProt Q06187); assay: BTK Kinase Lanthascreen Binding Assay; conditions: Lanthascreen binding, 60 minutes incubation; pIC50 = negative log of the IC50 in molar
Protocol: BTK Kinase Lanthascreen Binding Assay:
A BTK kinase lanthascreen binding assay monitors compound binding to unphosphorylated-BTK kinase domain (UP-BTK), by competing with a fluorescent labeled tracer. […] Data were analyzed using Xlfit™ version 5.3 from ID Business Solutions (Guildford), Microsoft Excel add-in. pIC50 refers to the negative log of the IC50 in molar.

Chain of unphosphorylated-BTK kinase domain (UP-BTK), GST-tagged human BTK (389-659aa) (Q06187 389-659): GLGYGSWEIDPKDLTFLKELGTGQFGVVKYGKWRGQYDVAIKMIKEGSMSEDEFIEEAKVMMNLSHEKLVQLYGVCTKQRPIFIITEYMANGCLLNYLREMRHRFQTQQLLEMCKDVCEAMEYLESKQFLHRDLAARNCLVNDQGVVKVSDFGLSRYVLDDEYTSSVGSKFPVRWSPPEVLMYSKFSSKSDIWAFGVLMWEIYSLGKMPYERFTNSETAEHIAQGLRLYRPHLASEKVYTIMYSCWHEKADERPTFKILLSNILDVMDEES

| Structure (SMILES) | BTK_I_binding pIC50 |
| --- | --- |
| Cc1cc(Oc2ccccc2)ccc1N1C(=O)Nc2c(C(=O)N[C@H]3CCCC[C@H]3NC(=O)CN)sc3nccc1c23 (single isomer, unassigned) [Example 444, N-((1S,2R)-2-(2-Aminoacetamido)cyclohexyl)-5-(*S)-(2-methyl-4-phenoxyphenyl)-4-oxo-4,5-dihydro-3H-1-thia-3,5,8-triazaacenaphthylene-2-carboxamide] | 6.73 |
| CC(=O)N[C@@H]1CCCC[C@H]1NC(=O)c1sc2nccc3c2c1NC(=O)N3c1ccc(Oc2ccccc2)cc1C (single isomer, unassigned) [Example 445, N-((1R,2R)-2-Acetamidocyclohexyl)-5-(*S)-(2-methyl-4-phenoxyphenyl)-4-oxo-4,5-dihydro-3H-1-thia-3,5,8-triazaacenaphthylene-2-carboxamide] | 6.73 |
| CC(=O)N[C@@H]1CCCC[C@@H]1NC(=O)c1sc2nccc3c2c1NC(=O)N3c1ccc(Oc2ccccc2)cc1C (single isomer, unassigned) [Example 446, N-((1S,2R)-2-Acetamidocyclohexyl)-5-(*S)-(2-methyl-4-phenoxyphenyl)-4-oxo-4,5-dihydro-3H-1-thia-3,5,8-triazaacenaphthylene-2-carboxamide] | 6.72 |
| Cc1cc(Oc2ccccc2)ccc1N1C(=O)Nc2c(C(=O)N[C@@H]3CCCC[C@H]3NC(=O)CN(C)C)sc3nccc1c23 (single isomer, unassigned) [Example 447, N-((1R,2R)-2-(2-(Dimethylamino)acetamido)cyclohexyl)-5-(*S)-(2-methyl-4-phenoxyphenyl)-4-oxo-4,5-dihydro-3H-1-thia-3,5,8-triazaacenaphthylene-2-carboxamide] | 6.67 |

The next lines start with the values.

| BTK_I_binding pIC50 | Structure (SMILES) |
| --- | --- |
| 6.66 | CNCC(=O)N[C@@H]1CCCC[C@H]1NC(=O)c1sc2nccc3c2c1NC(=O)N3c1ccc(Oc2ccccc2)cc1C (single isomer, unassigned) [Example 448, 5-(*S)-(2-Methyl-4-phenoxyphenyl)-N-((1R,2R)-2-(2-(methylamino)acetamido)cyclohexyl)-4-oxo-4,5-dihydro-3H-1-thia-3,5,8-triazaacenaphthylene-2-carboxamide] |
| 6.51 | Cc1cc(Oc2ccccc2)ccc1N1C(=O)Nc2c(C(=O)N[C@H]3CCCC[C@H]3NC(=O)CN(C)C)sc3nccc1c23 (single isomer, unassigned) [Example 449, N-((1S,2R)-2-(2-(Dimethylamino)acetamido)cyclohexyl)-5-(*S)-(2-methyl-4-phenoxyphenyl)-4-oxo-4,5-dihydro-3H-1-thia-3,5,8-triazaacenaphthylene-2-carboxamide] |
| 6.47 | Cc1cc(Oc2ccccc2)ccc1N1C(=O)Nc2c(C(=O)N[C@H]3CCCC[C@H]3N)sc3nccc1c23 (single isomer, unassigned) [Example 450, N-((1S,2R)-2-Aminocyclohexyl)-5-(*S)-(2-methyl-4-phenoxyphenyl)-4-oxo-4,5-dihydro-3H-1-thia-3,5,8-triazaacenaphthylene-2-carboxamide] |
| 6.40 | C=CC(=O)N[C@@H]1CCCC[C@@H]1NC(=O)c1sc2nccc3c2c1NC(=O)N3c1ccc(Oc2ccccc2)cc1C (single isomer, unassigned) [Example 451] |
| 6.38 | Cc1cc(Oc2ccccc2)ccc1N1C(=O)Nc2c(C(=O)N[C@H]3CCC[C@H]3N)sc3nccc1c23 (single isomer, unassigned) [Example 452, N-((1S,2R)-2-Aminocyclopentyl)-5-(*S)-(2-methyl-4-phenoxyphenyl)-4-oxo-4,5-dihydro-3H-1-thia-3,5,8-triazaacenaphthylene-2-carboxamide] |
| 7.63 | Cc1cc(CC(C)C)ncc1N1C(=O)Nc2c(C(=O)N[C@@H]3CCC[C@@H]3NC(=O)/C(C#N)=C/C3CC3)sc3nccc1c23 (single isomer, unassigned) [Example 466, N-((1R,2S)-2-((E)-2-Cyano-3-cyclopropylacrylamido)cyclopentyl)-5-(*S)-(6-isobutyl-4-methylpyridin-3-yl)-4-oxo-4,5-dihydro-3H-1-thia-3,5,8-triazaacenaphthylene-2-carboxamide] |

same assay, conditions: compound, 50 nM Tracer 236, 2 nM anti-GST antibody, 60 minutes; pIC50 = negative log of the IC50 in molar

| Structure (SMILES) | BTK_I_binding pIC50 |
| --- | --- |
| C=CC(=O)NC1CCC[C@@H](NC(=O)c2sc3nccc4c3c2NC(=O)N4c2ccc(Oc3ccccc3)cc2C)C1 (stereo in doubt) [Example 2, N-((1R,3S)-3-Acrylamidocyclohexyl)-5-(2-methyl-4-phenoxyphenyl)-4-oxo-4,5-dihydro-3H-1-thia-3,5,8-triazaacenaphthylene-2-carboxamide] | 7.36 |
| C=CC(=O)NC1CCC[C@H]1NC(=O)c1sc2nccc3c2c1NC(=O)N3c1ccnc(-c2ccccc2)c1 (stereo in doubt) [Example 197, N-((1R,2R)-2-Acrylamidocyclopentyl)-4-oxo-5-(2-phenylpyridin-4-yl)-4,5-dihydro-3H-1-thia-3,5,8-triazaacenaphthylene-2-carboxamide] | 7.48 |
| C=CC(=O)N[C@H]1CC[C@@H](NC(=O)c2sc3nccc4c3c2NC(=O)N4c2ccc(Oc3ccccc3)cc2C)CC1 [Example 3, N-((1S,4S)-4-Acrylamidocyclohexyl)-5-(2-methyl-4-phenoxyphenyl)-4-oxo-4,5-dihydro-3H-1-thia-3,5,8-triazaacenaphthylene-2-carboxamide] | 7.42 |
| Cc1cc(Oc2ccccc2)ccc1N1C(=O)Nc2c(C(=O)N[C@@H]3CCC[C@@H]3O)sc3nccc1c23 [Example 6, N-((1R,2S)-2-Hydroxycyclopentyl)-5-(2-methyl-4-phenoxyphenyl)-4-oxo-4,5-dihydro-3H-1-thia-3,5,8-triazaacenaphthylene-2-carboxamide] | 7.48 |
| Cc1cc(Oc2ccccc2)ccc1N1C(=O)Nc2c(C(=O)N[C@@H]3CCC[C@H]3O)sc3nccc1c23 [Example 9, N-((1R,2R)-2-Hydroxycyclopentyl)-5-(2-methyl-4-phenoxyphenyl)-4-oxo-4,5-dihydro-3H-1-thia-3,5,8-triazaacenaphthylene-2-carboxamide] | 7.41 |
| Cc1cc(Oc2ccccc2)ccc1N1C(=O)Nc2c(C(=O)N[C@@H]3CCCC[C@@H]3N)sc3nccc1c23 [Example 10, N-((1R,2S)-2-Aminocyclohexyl)-5-(2-methyl-4-phenoxyphenyl)-4-oxo-4,5-dihydro-3H-1-thia-3,5,8-triazaacenaphthylene-2-carboxamide] | 7.35 |
| CC(=O)N[C@@H]1CCC[C@H]1NC(=O)c1sc2nccc3c2c1NC(=O)N3c1ccc(Oc2ccccc2)cc1C [Example 11, N-((1R,2R)-2-Acetamidocyclopentyl)-5-(2-methyl-4-phenoxyphenyl)-4-oxo-4,5-dihydro-3H-1-thia-3,5,8-triazaacenaphthylene-2-carboxamide] | 7.24 |
| Cc1cc(Oc2ccccc2)ccc1N1C(=O)Nc2c(C(=O)N[C@@H]3CCC[C@@H]3N)sc3nccc1c23 [Example 12, N-((1R,2S)-2-Aminocyclopentyl)-5-(2-methyl-4-phenoxyphenyl)-4-oxo-4,5-dihydro-3H-1-thia-3,5,8-triazaacenaphthylene-2-carboxamide] | 7.03 |

same assay, conditions: read-out: BTK_I_binding pIC50 (converted)

| Structure (SMILES) | IC50 [µM] |
| --- | --- |
| Cc1cc(CC(C)C)ncc1N1C(=O)Nc2c(C(=O)N[C@@H]3CCC[C@@H]3NC(=O)/C=C/CNC(=O)CCCC(=O)NCCCOCCOCCOCCCNC(=O)CCCC[C@@H]3SC[C@@H]4NC(=O)N[C@@H]43)sc3nccc1c23 (single isomer, unassigned) [Example 464] | 0.229 |
